# Measurements as given in patent publication US11479551B2, “MTA-cooperative PRMT5 inhibitors” (Mirati Therapeutics, Inc., priority 2019, dated 2022).
# pIC50: −log10 of the molar value.
# Columns and labels:
# PRMT5/MEP50 complex [1] = biological target: T1, PRMT5/MEP50 complex (Homo sapiens (Human), UniProt O14744); test: PRMT5:MEP50 FlashPlate Assay (histone H4 peptide substrate, plus and minus MTA); type: biochemical; conditions: for IC50: IC50 + 2 μM MTA (nM), in the presence of 2 μM MTA; for pIC50: in the absence of MTA, read-out: IC50
# T1 sequence (O14744 2-637): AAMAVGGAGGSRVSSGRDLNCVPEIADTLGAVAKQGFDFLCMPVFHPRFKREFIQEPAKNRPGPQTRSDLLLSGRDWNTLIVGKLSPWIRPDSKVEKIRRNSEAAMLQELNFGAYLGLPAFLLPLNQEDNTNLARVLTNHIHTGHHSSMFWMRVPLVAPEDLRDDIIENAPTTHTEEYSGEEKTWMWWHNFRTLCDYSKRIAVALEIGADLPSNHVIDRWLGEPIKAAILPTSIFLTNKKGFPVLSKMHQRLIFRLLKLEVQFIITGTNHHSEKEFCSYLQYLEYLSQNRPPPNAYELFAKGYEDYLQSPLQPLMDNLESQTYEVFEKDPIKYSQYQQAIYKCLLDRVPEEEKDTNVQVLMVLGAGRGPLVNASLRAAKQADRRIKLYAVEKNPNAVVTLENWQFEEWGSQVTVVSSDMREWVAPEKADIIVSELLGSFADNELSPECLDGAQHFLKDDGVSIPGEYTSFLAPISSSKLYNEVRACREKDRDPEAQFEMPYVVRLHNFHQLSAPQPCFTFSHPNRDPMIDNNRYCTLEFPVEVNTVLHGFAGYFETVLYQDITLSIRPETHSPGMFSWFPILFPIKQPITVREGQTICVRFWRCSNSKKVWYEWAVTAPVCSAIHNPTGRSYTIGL
# T1 sequence (Q9BQA1 2-342 partner): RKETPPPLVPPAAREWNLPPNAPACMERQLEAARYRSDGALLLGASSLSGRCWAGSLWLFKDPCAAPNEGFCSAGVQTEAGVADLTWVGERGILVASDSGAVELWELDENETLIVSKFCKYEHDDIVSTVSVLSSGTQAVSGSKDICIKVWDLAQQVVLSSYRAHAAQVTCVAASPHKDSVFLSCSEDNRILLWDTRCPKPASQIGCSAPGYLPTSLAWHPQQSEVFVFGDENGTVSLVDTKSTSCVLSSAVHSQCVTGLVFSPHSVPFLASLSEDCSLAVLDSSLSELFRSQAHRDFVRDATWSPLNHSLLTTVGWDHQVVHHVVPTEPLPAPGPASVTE
# Experimental: (§1) The PRMT5 inhibitory activity of compounds of the present invention was determined using either a PRMT5:MEP50 FlashPlate Assay (Reaction Biology Corporation) or a PRMT5:MEP50 HotSpot Assay (Reaction Biology Corporation).
# 1. PRMT5:MEP50 FlashPlate Assay
# PRMT5/MEP50 complex [2] = biological target: T1, PRMT5/MEP50 complex; test: PRMT5:MEP50 HotSpot Assay (full-length histone H2A substrate, plus and minus MTA); type: biochemical
# Experimental: as §1
# The assay uses recombinant full-length histone H2A as the PRMT5 substrate. […] The reaction was stopped and transferred to filter paper for detection. The amount of tritiated H2A in each sample was determined using a scintillation counter.
# [3] = IC50 + 2 μM MTA, in the presence of 2 μM MTA
# [4] = in the absence of MTA, read-out: IC50
SMILES,IC50 (PRMT5/MEP50 complex [1]) [nM],pIC50 (PRMT5/MEP50 complex [1]),pIC50 (PRMT5/MEP50 complex [2]; [3]),pIC50 (PRMT5/MEP50 complex [2]; [4])
"N#Cc1ccccc1-c1cncc(-c2ccc3c(=O)[nH]nc(CN)c3c2)c1 [Example 3-40, 2-(5-(4-(aminomethyl)-1-oxo-1,2-dihydrophthalazin-6-yl)pyridin-3-yl)benzonitrile]",6,6.71,5.01,–
"NCc1n[nH]c(=O)c2ccc(-c3cncc(Oc4ccccc4)c3)cc12 [Example 3-50, 4-(aminomethyl)-6-(5-phenoxypyridin-3-yl)phthalazin-1(2H)-one]",10,6.56,5.42,< 5.00
"NCc1n[nH]c(=O)c2ccc(-c3cnc4[nH]ccc4c3)cc12 [Example 3-59, 4-(aminomethyl)-6-(1H-pyrrolo[2,3-b]pyridin-5-yl)phthalazin-1(2H)-one]",7.7,6.40,5.94,< 5.00
"COc1ccc2ncc(-c3ccc4c(=O)[nH]nc(CN)c4c3)n2c1 [Example 4-16, 4-(aminomethyl)-6-(6-methoxyimidazo[1,2-a]pyridin-3-yl)phthalazin-1(2H)-one]",9.4,6.22,5.05,–
"Cn1ncc(-c2ccc3c(=O)[nH]nc(CN)c3c2)c1-c1ccccc1 [Example 4-32, 4-(aminomethyl)-6-(1-methyl-5-phenyl-1H-pyrazol-4-yl)phthalazin-1(2H)-one]",1.6,7.35,5.69,< 5.00
"CCOc1ccc2ncc(-c3ccc4c(=O)[nH]nc(CN)c4c3)n2c1 [Example 4-36, 4-(aminomethyl)-6-(6-ethoxyimidazo[1,2-a]pyridin-3-yl)phthalazin-1(2H)-one]",13,6.27,5.55,–
"Cc1c[nH]c2ncc(-c3ccc4c(=O)[nH]nc(CN)c4c3)cc12 [Example 4-40, 4-(aminomethyl)-6-(3-methyl-1H-pyrrolo[2,3-b]pyridin-5-yl)phthalazin-1(2H)-one]",10,6.56,5.50,–
"NCc1n[nH]c(=O)c2ccc(-c3cnc4[nH]cc(Cl)c4c3)cc12 [Example 4-44, 4-(aminomethyl)-6-(3-chloro-1H-pyrrolo[2,3-b]pyridin-5-yl)phthalazin-1(2H)-one]",5.4,6.16,5.17,< 5.00
"CCc1c[nH]c2ncc(-c3ccc4c(=O)[nH]nc(CN)c4c3)cc12 [Example 4-45, 4-(aminomethyl)-6-(3-ethyl-1H-pyrrolo[2,3-b]pyridin-5-yl)phthalazin-1(2H)-one]",16,6.54,5.55,–
"NCc1n[nH]c(=O)c2ccc(-c3cncc(C(O)c4ccccc4)c3)cc12 (centres unmarked) [Example 4-51, 4-(aminomethyl)-6-(5-(hydroxy(phenyl)methyl)pyridin-3-yl)phthalazin-1(2H)-one]",5.8,6.28,5.82,< 5.00
"NCc1n[nH]c(=O)c2ccc(-c3cncc(Oc4ccccc4Cl)c3)cc12 [Example 4-71, 4-(aminomethyl)-6-(5-(2-chlorophenoxy)pyridin-3-yl)phthalazin-1(2H)-one]",4.9,6.94,5.98,< 5.00
"Cc1ccc(Oc2cncc(-c3ccc4c(=O)[nH]nc(CN)c4c3)c2)c(C)c1 [Example 4-73, 4-(aminomethyl)-6-(5-(2,4-dimethylphenoxy)pyridin-3-yl)phthalazin-1(2H)-one]",0.6,7.62,6.03,–
"NCc1n[nH]c(=O)c2ccc(-c3cnn4c3CN(c3ccccc3)CC4)cc12 [Example 4-83, 4-(aminomethyl)-6-(5-phenyl-4,5,6,7-tetrahydropyrazolo[1,5-a]pyrazin-3-yl)phthalazin-1(2H)-one]",14,6.46,5.57,–
"COc1cccc(-c2c(-c3ccc4c(=O)[nH]nc(CN)c4c3)cnn2C)c1 [Example 4-93, 4-(aminomethyl)-6-(5-(3-methoxyphenyl)-1-methyl-1H-pyrazol-4-yl)phthalazin-1(2H)-one]",3.3,7.07,6.07,–
"Cn1ncc(-c2ccc3c(=O)[nH]nc(CN)c3c2)c1OCc1cccc(Cl)c1 [Example 4-155, 4-(aminomethyl)-6-(5-((3-chlorobenzyl)oxy)-1-methyl-1H-pyrazol-4-yl)phthalazin-1(2H)-one]",–,–,5.46,–
"Cn1ncc(-c2ccc3c(=O)[nH]nc(CN)c3c2)c1OCc1ccc(Cl)cc1 [Example 4-156, 4-(aminomethyl)-6-(5-((4-chlorobenzyl)oxy)-1-methyl-1H-pyrazol-4-yl)phthalazin-1(2H)-one]",–,–,5.04,–
"COc1ccc(Oc2cncc(-c3ccc4c(=O)[nH]nc(CN)c4c3)c2)c(OC)c1 [Example 4-162, 4-(aminomethyl)-6-(5-(2,4-dimethoxyphenoxy)pyridin-3-yl)phthalazin-1(2H)-one]",–,–,6.07,–
"Cn1ncc(-c2ccc3c(=O)[nH]nc(CN)c3c2)c1-c1cc(Cl)cc(Cl)c1C#N [Example 4-165, 2-(4-(4-(aminomethyl)-1-oxo-1,2-dihydrophthalazin-6-yl)-1-methyl-1H-pyrazol-5-yl)-4,6-dichlorobenzonitrile]",–,–,5.62,–
"Cn1ncc(-c2ccc3c(=O)[nH]nc(CN)c3c2)c1-c1cc2cccnc2cc1C#N [Example 4-166, 6-(4-(4-(aminomethyl)-1-oxo-1,2-dihydrophthalazin-6-yl)-1-methyl-1H-pyrazol-5-yl)quinoline-7-carbonitrile]",–,–,5.35,–
"Cn1ncc(-c2ccc3c(=O)[nH]nc(CN)c3c2)c1-c1cc2ncccc2cc1C#N [Example 4-167, 7-(4-(4-(aminomethyl)-1-oxo-1,2-dihydrophthalazin-6-yl)-1-methyl-1H-pyrazol-5-yl)quinoline-6-carbonitrile]",–,–,5.18,–
"COc1cc(Cl)cc(-c2c(-c3ccc4c(=O)[nH]nc(CN)c4c3)cnn2C)c1C#N [Example 4-168, 2-(4-(4-(aminomethyl)-1-oxo-1,2-dihydrophthalazin-6-yl)-1-methyl-1H-pyrazol-5-yl)-4-chloro-6-methoxybenzonitrile]",–,–,5.86,–
"Cn1ncc(-c2ccc3c(=O)[nH]nc(CN)c3c2)c1-c1cccc(OC2CCC2)c1C#N [Example 4-177, 2-(4-(4-(aminomethyl)-1-oxo-1,2-dihydrophthalazin-6-yl)-1-methyl-1H-pyrazol-5-yl)-6-cyclobutoxybenzonitrile]",–,–,5.22,–

# Results, then the compound that gave them:
IC50 (PRMT5/MEP50 complex [1]) [nM],pIC50 (PRMT5/MEP50 complex [1]),pIC50 (PRMT5/MEP50 complex [2]; [3]),pIC50 (PRMT5/MEP50 complex [2]; [4]),SMILES
–,–,6.14,–,"COc1ccc(-c2c(-c3ccc4c(=O)[nH]nc(CN)c4c3)cnn2C)c(C#N)c1Cl [Example 4-170, 6-(4-(4-(aminomethyl)-1-oxo-1,2-dihydrophthalazin-6-yl)-1-methyl-1H-pyrazol-5-yl)-2-chloro-3-methoxybenzonitrile]"
–,–,5.35,–,"CN(C)c1c(-c2ccc3c(=O)[nH]nc(CN)c3c2)cnn1C [Example 4-171, 4-(aminomethyl)-6-(5-(dimethylamino)-1-methyl-1H-pyrazol-4-yl)phthalazin-1(2H)-one]"
–,–,5.80,–,"CCOc1ccc(-c2c(-c3ccc4c(=O)[nH]nc(CN)c4c3)cnn2C)c(C#N)c1 [Example 4-173, 2-(4-(4-(aminomethyl)-1-oxo-1,2-dihydrophthalazin-6-yl)-1-methyl-1H-pyrazol-5-yl)-5-ethoxybenzonitrile]"
–,–,< 5.00,–,"Cn1ncc(-c2ccc3c(=O)[nH]nc(CN)c3c2)c1OCc1c(Cl)cccc1C#N [Example 4-174, 2-(((4-(4-(aminomethyl)-1-oxo-1,2-dihydrophthalazin-6-yl)-1-methyl-1H-pyrazol-5-yl)oxy)methyl)-3-chlorobenzonitrile]"
–,–,5.95,–,"Cn1ncc(-c2ccc3c(=O)[nH]nc(CN)c3c2)c1-c1cccc(OC2CC2)c1C#N [Example 4-175, 2-(4-(4-(aminomethyl)-1-oxo-1,2-dihydrophthalazin-6-yl)-1-methyl-1H-pyrazol-5-yl)-6-cyclopropoxybenzonitrile]"
–,–,5.06,–,"CC(C)Oc1cccc(-c2c(-c3ccc4c(=O)[nH]nc(CN)c4c3)cnn2C)c1C#N [Example 4-176, 2-(4-(4-(aminomethyl)-1-oxo-1,2-dihydrophthalazin-6-yl)-1-methyl-1H-pyrazol-5-yl)-6-isopropoxybenzonitrile]"
–,–,5.31,–,"CCCOc1cccc(-c2c(-c3ccc4c(=O)[nH]nc(CN)c4c3)cnn2C)c1C#N [Example 4-178, 2-(4-(4-(aminomethyl)-1-oxo-1,2-dihydrophthalazin-6-yl)-1-methyl-1H-pyrazol-5-yl)-6-propoxybenzonitrile]"
–,–,5.91,–,"COc1ccc(-c2c(-c3ccc4c(=O)[nH]nc(CN)c4c3)cnn2C)c(C#N)c1C [Example 4-179, 6-(4-(4-(aminomethyl)-1-oxo-1,2-dihydrophthalazin-6-yl)-1-methyl-1H-pyrazol-5-yl)-3-methoxy-2-methylbenzonitrile]"
–,–,< 5.00,–,"N#Cc1ccccc1-c1c(-c2ccc3c(=O)[nH]nc(CN)c3c2)cnn1CCO [Example 4-193, 2-(4-(4-(aminomethyl)-1-oxo-1,2-dihydrophthalazin-6-yl)-1-(2-hydroxyethyl)-1H-pyrazol-5-yl)benzonitrile]"
–,–,< 5.00,–,"NCc1n[nH]c(=O)c2ccc(-c3cncc(C4CCCOC4)c3)cc12 (centres unmarked) [Example 4-195, 4-(aminomethyl)-6-(5-(tetrahydro-2H-pyran-3-yl)pyridin-3-yl)phthalazin-1(2H)-one]"
–,–,< 5.00,–,"N#Cc1ccc(C#N)c(-c2cncc(-c3ccc4c(=O)[nH]nc(CN)c4c3)c2)c1 [Example 8-9, 2-(5-(4-(aminomethyl)-1-oxo-1,2-dihydrophthalazin-6-yl)pyridin-3-yl)terephthalonitrile]"
–,–,< 5.00,–,"NCc1n[nH]c(=O)c2ccc(-c3cncc(C4CCCCC4)c3)cc12 [Example 14-1, 4-(aminomethyl)-6-(5-cyclohexyl-3-pyridyl)-2H-phthalazin-1-one]"
